This assay can be described thus: DPPH free radical scavenging rate method (antioxidant capacity). Type of assay: biochemical. The note with it: 30 min, dark, 517 nm, average of three. As for the experimental part: The antioxidant capacity was determined with the neutral protease and trypsin-digested peptide prepared in example 2, as well as the alkaline protease-digested peptide, the trypsin-digested peptide, the neutral protease-digested peptide, the papain-digested peptide and the pepsin-digested peptide prepared in example 3 used as samples, with soybean protein peptide and reduced glutathione used as controls (DPPH free radical scavenging rate method).
(1) DPPH (1,1-diphenyl-2-picrylhydrazyl) (25 mg) was weighed accurately, dissolved in absolute ethanol and the volume reached to 250 mL in a brown volumetric flask, DPPH solution with the concentration of 0.1 mg/mL was obtained and was kept in dark place to be supplied as standby.
(2) 1.0 mL sample solutions with different concentrations (100 mg/mL, 10 mg/mL, 1 mg/mL, 0.1 mg/mL) were taken, the solutions were placed in a 10 mL colorimetric tube respectively, 4.0 ml DPPH solution was added, the mixture was reacted at room temperature in a dark place for 30 minutes.
(3) The absorbance value was measured at 517 nm with the absolute ethanol as blank. The DPPH free radical scavenging rate was calculated according to the following formula. DPPH free radical scavenging rate (%)=[…] • In the formula. A0—the absorbance value of 1.0 mL distilled water+3.0 mL solution • As—the absorbance value of 1.0 mL sample solution+3.0 mL DPPH solution • Ac—the absorbance value of 1.0 mL sample solution+3.0 mL absolute ethanol.
The experiment was repeated for three times, the average value of the scavenging rate was obtained (if the solution was turbid, the measurement was taken after centrifugation).

On to `N[C@@H](CCC(=O)N[C@@H](CS)C(=O)NCC(=O)O)C(=O)O` [Reduced glutathione (GSH), Reduced glutathione], for which the “DPPH free radical scavenging rate” value (sample concentration 0.1 mg/ml) is 30.8%, the “DPPH free radical scavenging rate” value (sample concentration 1 mg/ml) came out at 72.1%, the “DPPH free radical scavenging rate” value (sample concentration 10 mg/ml) amounted to 90.9% and the “DPPH free radical scavenging rate” value (sample concentration 100 mg/ml) turned out to be 95.9%.

The record behind these values is patent publication US10548933B2, “Method for preparing broccoli protein peptide mixture” (ZHEJIANG HISUN PHARMACEUTICAL CO., LTD., priority 2015, dated 2020).
